{"source": "paper PMC10377586", "about": "(Biomolecules, 2023)", "key": {"human A3 (hA3) ARs": {"biological_target": "T1, human A3 (hA3) ARs (Homo sapiens, UniProt P0DMS8)", "T1 construct": "expressed in transfected cells; host or cells: CHO cells (membranes)", "T1 sequence (P0DMS8 1-318)": "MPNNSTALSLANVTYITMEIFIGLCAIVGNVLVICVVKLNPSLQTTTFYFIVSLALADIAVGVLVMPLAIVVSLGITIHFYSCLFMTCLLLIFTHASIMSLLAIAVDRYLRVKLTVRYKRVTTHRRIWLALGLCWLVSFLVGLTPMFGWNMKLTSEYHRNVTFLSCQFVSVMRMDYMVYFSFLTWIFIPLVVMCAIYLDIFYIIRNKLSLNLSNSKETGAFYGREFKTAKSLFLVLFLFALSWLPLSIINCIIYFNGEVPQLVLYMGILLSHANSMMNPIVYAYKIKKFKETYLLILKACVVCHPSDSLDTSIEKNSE", "test": "Radioligand binding [3H]PSB-11, CHO cell membranes", "details": "for Ki: CHO cell membranes, read-out: hA3 [3H]PSB-11 Ki ± SEM; for inhibition at 1 µM: read-out: hA3 [3H]PSB-11 % inhibition ± SEM at 1 µM", "protocol": "The final compounds were tested in radioligand binding assays to evaluate their affinity for all four ARs subtypes (see Table 2). Rat brain cortical membrane preparations were used as a source of rat A1 (rA1) ARs, and rat brain striatal membrane preparations served as a source of rat A2A (rA2A) ARs. For A2B- and A3AR assays, membrane preparations of Chinese hamster ovary (CHO) cells recombinantly expressing either human A2B (hA2B) or human A3 (hA3) ARs were employed.\nAdenosine receptor radioligand binding assays were performed as previously described using rat brain cortical membrane preparations for A1 and rat brain striatal membrane preparations for A2A AR assays. Frozen rat brains (unstripped) were obtained from Pel Freez, Rogers, AR, USA. For assays at human AR subtypes, cell membranes of CHO cells recombinantly expressing the respective receptor were used. The following compounds were employed as radioligands: A1: [^3H]2-chloro-N^6-cyclopentyladenosine ([^3H]CCPA); A2A: [^3H]3-(3-hydroxypropyl)-7-methyl-8-(m-methoxystyryl)-1-propargylxanthine ([^3H]MSX-2); A2B: [^3H]8-(4-(4-(4-chlorophenyl)piperazine-1-sulfonyl)phenyl)-1-propylxanthine ([^3H]PSB-603); A3: [^3H]phenyl-8-ethyl-4-methyl-(8R)-4,5,7,8-tetrahydro-1H-imidazo[2,1-i]purine-5-one ([^3H]PSB-11). Initially, a single high concentration of compound was tested (1 µM). For potent compounds, full concentration–inhibition curves were determined using six to ten different concentrations of test compound spanning three orders of magnitude. At least three independent experiments were performed. Data were analyzed using GraphPad PRISM program version 4.0 or higher (Graph Pad, San Diego, CA, USA)."}, "human PDE10A1": {"biological_target": "T2, human PDE10A1 (Homo sapiens, UniProt Q9Y233)", "T2 construct": "purchased BPS Biosciences", "T2 sequence (Q9Y233 1-779 isoform Q9Y233-1)": "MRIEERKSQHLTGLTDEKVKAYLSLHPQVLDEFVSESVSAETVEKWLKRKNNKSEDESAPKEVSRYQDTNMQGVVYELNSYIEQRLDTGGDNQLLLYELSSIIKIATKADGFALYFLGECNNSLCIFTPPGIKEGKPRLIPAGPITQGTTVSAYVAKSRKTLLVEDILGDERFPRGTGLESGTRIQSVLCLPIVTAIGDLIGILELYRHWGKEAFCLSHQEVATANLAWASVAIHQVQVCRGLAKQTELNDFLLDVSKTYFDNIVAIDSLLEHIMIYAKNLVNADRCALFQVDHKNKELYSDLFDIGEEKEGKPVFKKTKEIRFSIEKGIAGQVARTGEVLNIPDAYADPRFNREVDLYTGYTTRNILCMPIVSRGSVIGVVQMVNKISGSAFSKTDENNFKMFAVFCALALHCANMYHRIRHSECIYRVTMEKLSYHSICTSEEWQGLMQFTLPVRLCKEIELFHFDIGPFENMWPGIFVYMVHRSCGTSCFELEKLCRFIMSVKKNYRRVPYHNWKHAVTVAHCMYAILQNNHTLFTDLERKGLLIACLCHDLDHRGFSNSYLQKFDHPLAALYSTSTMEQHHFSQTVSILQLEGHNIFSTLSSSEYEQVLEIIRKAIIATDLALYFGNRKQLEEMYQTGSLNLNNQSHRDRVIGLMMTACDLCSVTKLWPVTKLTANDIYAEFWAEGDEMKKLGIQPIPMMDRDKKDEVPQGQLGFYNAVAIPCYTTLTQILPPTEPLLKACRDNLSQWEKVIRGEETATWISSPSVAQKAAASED", "test": "PDElight HTS cAMP phosphodiesterase assay, PDE10A1", "type": "biochemical", "details": "for inhibition at 10 µM: read-out: PDE 10A1 % Inhibition ± SEM at 10 µM; for IC50: read-out: PDE 10A1 IC50 ± SEM", "protocol": "Further biological evaluation of the presented compound library was performed determining inhibitory potencies against selected human PDE isoforms, namely, PDE4 and PDE10 (for results see Table 3).\nTested and reference compounds were dissolved in dimethyl sulfoxide (DMSO) at a concentration of 10 mM and further diluted in assay buffer (10 mM Tris-HCl, 10 mM magnesium chloride and 0.05% Tween-20; pH 7.4). Inhibition of human PDE10A and 4B1 was measured using PDElight HTS cAMP phosphodiesterase assay kit (Lonza, Basel, Switzerland) according to manufacturer’s recommendations. Then, 10 ng of PDE10A and 5 ng of PDE4B1 (BPS Biosciences, San Diego, CA, USA) in appropriate buffer was incubated with reference and tested compound for 20 min. […] Then PDELight AMP Detection Reagent was added and incubated 10 min. All reactions were carried out at 37 °C in 96 white-walled, half-area-well plates (PerkinElmer). Luminescence was measured in a multifunction plate reader (POLARstar Omega, BMG Labtech, Ortenberg, Germany). The percentage of inhibition and IC50s were computed using GraphPad Prism Version 6.0 software."}, "DPPH antioxidant assay": {"test": "DPPH antioxidant assay", "type": "physicochemical", "details": "compound at 50 µM", "text": "The 2,2-diphenyl-1-picrylhydrazyl (DPPH) assay was used to determine the antioxidant properties of selected compounds using ascorbic acid, trolox, and quercetin as references. […] From a structural point of view, 21 and 22 share a common pyrimido[2,1-f]purinedione core with propyl or butyl substituents at the N1- and N3-position. Compounds 11i and 11l, containing hexyl or phenoxyethyl as N7-substituents, were the only structures in the groups of bicyclic xanthine derivatives that lacked antioxidant activity in the DPPH assay.\nAntioxidant properties of considered structures were evaluated in DPPH test. The assay utilizes a stable free radical 2,2-diphenyl-1-picrylhydrazyl (DPPH). DPPH has a deep violet color in solution and strong absorption band at 520 nm. The antioxidant activity of the tested compounds was defined by their ability to induce the formation of the reduced form of DPPH. Upon reduction, DPPH color turned pale yellow, which manifested by decreased sample absorption at 520 nm and was measured in conducted experiments using EnSpire microplate reader (PerkinElmer). Antioxidant activity of xanthine derivatives and reference compounds was tested in triplicate at 50 µM concentration and normalized to the activity of reference radical scavenger—quercetin.\nFigure 2 Antioxidant properties of xanthine derivatives evaluated in the DPPH test. All compounds were tested at 50 µM concentration. Results were normalized to the antioxidant activity measured for quercetin. ASC, ascorbic acid; TLX, trolox; QCT, quercetin."}, "rat A1 (rA1) ARs": {"biological_target": "T3, rat A1 (rA1) ARs (Rattus norvegicus, UniProt P25099)", "T3 construct": "using rat brain cortical membrane preparations for A1; tissue Pel Freez; host or cells: rat brain cortex membranes", "T3 sequence (P25099 1-326)": "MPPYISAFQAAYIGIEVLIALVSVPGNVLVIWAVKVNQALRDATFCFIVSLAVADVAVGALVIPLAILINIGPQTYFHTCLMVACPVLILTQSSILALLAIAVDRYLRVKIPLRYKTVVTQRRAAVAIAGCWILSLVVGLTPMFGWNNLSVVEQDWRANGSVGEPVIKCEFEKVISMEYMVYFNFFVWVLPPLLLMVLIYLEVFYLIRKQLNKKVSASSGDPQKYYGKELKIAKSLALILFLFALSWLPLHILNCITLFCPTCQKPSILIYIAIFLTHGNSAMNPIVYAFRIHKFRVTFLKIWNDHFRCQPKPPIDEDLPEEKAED", "test": "Radioligand binding [3H]CCPA, rat brain cortical membranes", "details": "read-out: rA1 [3H]CCPA % inhibition ± SEM at 10 µM"}}, "data": [{"smiles": "CCCCCCn1c(NCCc2ccc(O)c(O)c2)nc2c1c(=O)n(C)c(=O)n2C", "note": "[Compound 11i, 8-((3,4-Dihydroxyphenethyl)amino)-7-hexyl-1,3-dimethyl-3,7-dihydro-1H-purine-2,6-dione]", "values": [{"measurement": "melting point", "value": "216 to 218", "unit": "°C"}, {"measurement": "Ki", "setting": "human A3 (hA3) ARs", "value": "> 1000", "unit": "nM"}, {"measurement": "inhibition at 1 µM", "setting": "human A3 (hA3) ARs", "value": 3, "unit": "%"}, {"measurement": "inhibition at 10 µM", "setting": "human PDE10A1", "value": 14, "unit": "%"}, {"measurement": "IC50", "setting": "human PDE10A1", "value": "> 10000", "unit": "nM"}, {"measurement": "Antioxidative Activity [% of Quercetin Response at 50 µM ± SD]", "setting": "DPPH antioxidant assay", "value": "26 ± 1 % of Quercetin Response"}, {"measurement": "inhibition at 10 µM", "setting": "rat A1 (rA1) ARs", "value": 43, "unit": "%"}]}, {"smiles": "Cn1c(=O)c2c(nc3n2CCCN3CCc2ccc(O)c(O)c2)n(C)c1=O", "note": "[Compound 20a, 9-(3,4-Dihydroxyphenethyl)-1,3-dimethyl-6,7,8,9-tetrahydropyrimido[2,1-f]purine-2,4(1H,3H)-dione]", "values": [{"measurement": "melting point", "value": "213 to 215", "unit": "°C"}, {"measurement": "Ki", "setting": "human A3 (hA3) ARs", "value": "> 1000", "unit": "nM"}, {"measurement": "inhibition at 1 µM", "setting": "human A3 (hA3) ARs", "value": -6, "unit": "%"}, {"measurement": "inhibition at 10 µM", "setting": "human PDE10A1", "value": 35, "unit": "%"}, {"measurement": "IC50", "setting": "human PDE10A1", "value": "> 10000", "unit": "nM"}, {"measurement": "Antioxidative Activity [% of Quercetin Response at 50 µM ± SD]", "setting": "DPPH antioxidant assay", "value": "68 ± 2 % of Quercetin Response"}, {"measurement": "inhibition at 10 µM", "setting": "rat A1 (rA1) ARs", "value": 43, "unit": "%"}]}, {"smiles": "Cn1c(=O)c2c(nc(NCCc3ccc(O)c(O)c3)n2CCc2ccccc2)n(C)c1=O", "note": "[Compound 11k, 8-((3,4-Dihydroxyphenethyl)amino)-1,3-dimethyl-7-phenethyl-3,7-dihydro-1H-purine-2,6-dione]", "values": [{"measurement": "Ki", "setting": "human A3 (hA3) ARs", "value": "> 1000", "unit": "nM"}, {"measurement": "inhibition at 1 µM", "setting": "human A3 (hA3) ARs", "value": -1, "unit": "%"}, {"measurement": "IC50", "setting": "human PDE10A1", "value": "2410 ± 70", "unit": "nM"}, {"measurement": "Antioxidative Activity [% of Quercetin Response at 50 µM ± SD]", "setting": "DPPH antioxidant assay", "value": "73 ± 3 % of Quercetin Response"}, {"measurement": "inhibition at 10 µM", "setting": "rat A1 (rA1) ARs", "value": 46, "unit": "%"}]}]}
